From PubChem BioAssay (NCI)
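Dose response: 5 concentrations. Exposure: 48 h. Format: 96-well plates. Endpoint: linear interpolation; highest concentration if not reached. GI50 marks 50% less growth. Definition used: TGI = concentration required for complete inhibition of growth.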

Experiments:
Assay in all cases: growth of human tumour cells (NCI), 48 h
A549 NSCLC = test system: A549 NSCLC
CCRF-CEM leukemia = test system: CCRF-CEM leukemia
HOP-62 NSCLC = test system: HOP-62 NSCLC
K-562 leukemia = test system: K-562 leukemia
MALME-3M melanoma = test system: MALME-3M melanoma
MOLT-4 leukemia = test system: MOLT-4 leukemia
NCI-H522 lung = test system: NCI-H522 lung
SF-268 CNS = test system: SF-268 CNS
TK-10 renal = test system: TK-10 renal
SK-MEL-2 melanoma = test system: SK-MEL-2 melanoma

| Structure (SMILES) | TGI (A549 NSCLC) | TGI (CCRF-CEM leukemia) | TGI (HOP-62 NSCLC) | TGI (K-562 leukemia) | TGI (MALME-3M melanoma) | TGI (MOLT-4 leukemia) | TGI (NCI-H522 lung) | TGI (SF-268 CNS) | TGI (TK-10 renal) | TGI (SK-MEL-2 melanoma) | GI50 (A549 NSCLC) | GI50 (HOP-62 NSCLC) | GI50 (K-562 leukemia) | GI50 (MOLT-4 leukemia) | GI50 (NCI-H522 lung) | GI50 (SF-268 CNS) | GI50 (SK-MEL-2 melanoma) | GI50 (TK-10 renal) | GI50 (CCRF-CEM leukemia) | GI50 (MALME-3M melanoma) |
| --- | --- | --- | --- | --- | --- | --- | --- | --- | --- | --- | --- | --- | --- | --- | --- | --- | --- | --- | --- | --- |
| CC1C[C@H](C)CC(C(O)CC2CC(=O)N(Cc3ccccc3)C(=O)C2)C1O (stereo not given in full) | > 100 µM | > 100 µM | > 100 µM | > 100 µM | > 100 µM | > 100 µM | > 100 µM | > 100 µM | > 100 µM | – | – | – | – | – | – | – | – | – | – | – |
| CC(/C(=N\Nc1ccccc1)c1ccc(O)cc1)C1C(=O)Oc2ccccc21 (stereo not given) | > 100 µM | > 100 µM | > 100 µM | > 100 µM | > 100 µM | > 100 µM | – | – | > 100 µM | > 100 µM | – | – | – | – | – | – | – | – | – | – |
| COc1ccc2c(c1)[n+](=O)c(C(=O)c1ccco1)c(C(F)(F)F)n2[O-] | 16.6 µM | – | 21.6 µM | > 100 µM | – | > 100 µM | > 100 µM | 33.2 µM | 60.4 µM | > 100 µM | 2.56 µM | 2.86 µM | 5.24 µM | > 100 µM | 35.6 µM | 3.41 µM | 24 µM | 8.56 µM | – | – |
| Cc1ccc(S(=O)(=O)N2CCSCCN(S(=O)(=O)c3ccc(C)cc3)CCN(S(=O)(=O)c3ccc(C)cc3)CC2)cc1 | > 100 µM | > 100 µM | 69 µM | > 100 µM | – | > 100 µM | – | > 100 µM | – | 79.9 µM | – | – | – | – | – | – | – | – | – | – |
| COc1ccc(C2CC(c3cc(C)ccc3O)=NC(N)=N2)cc1 (stereo not given) | > 100 µM | > 100 µM | > 100 µM | > 100 µM | > 100 µM | > 100 µM | > 100 µM | > 100 µM | > 100 µM | – | – | – | – | – | – | – | – | – | – | – |
| COc1ccc(C(=O)c2cc(OC)c(OC)c(OC)c2)cc1/C=C/C(=O)c1ccc(OC)c(OC)c1 | – | 13.3 µM | > 100 µM | > 100 µM | – | 17.4 µM | – | > 100 µM | > 100 µM | – | – | 34.1 µM | 0.4 µM | 0.669 µM | – | 3 µM | – | 4.16 µM | 0.465 µM | – |
| CCCCCCCCN(CCCCCCCC)CCCCCCNc1cc(OC)cc2cccnc12 | 34.8 µM | > 100 µM | 23.5 µM | – | 21.9 µM | 42.9 µM | 4.78 µM | 30 µM | 36 µM | 19.1 µM | 16.3 µM | 11.1 µM | – | 16.3 µM | 1.9 µM | 12.7 µM | 5.8 µM | 20.3 µM | 11.4 µM | 6.92 µM |
| C=C(C)[C@@H]1CC[C@]2(C(=O)O)CC[C@]3(C)[C@H](CC[C@@H]4[C@@]5(C)C[C@@H](CC#Cc6ccc(C(F)(F)F)cc6)[C@H](O)C(C)(C)[C@@H]5CC[C@]43C)[C@@H]12 | – | > 100 µM | – | > 100 µM | – | > 100 µM | – | – | > 100 µM | 4.58 µM | – | – | 1.93 µM | 2.75 µM | – | – | 2.08 µM | 6.11 µM | 2.98 µM | – |
| CCOC(=O)C1C2CCC(C2)C1(CCl)C(=O)OCC (stereo not given) | > 100 µM | > 100 µM | > 100 µM | > 100 µM | > 100 µM | > 100 µM | – | > 100 µM | > 100 µM | – | – | – | – | – | – | – | – | – | – | – |
| O=C(CN(/C=C/C(=O)C(F)(F)F)c1ccc(Cl)cc1)c1ccccc1 | > 100 µM | 33.5 µM | 24.5 µM | > 100 µM | – | > 100 µM | 26.3 µM | > 100 µM | 37.2 µM | 35.6 µM | 12 µM | 11.4 µM | 2.8 µM | 39.7 µM | 6.52 µM | > 100 µM | 15.5 µM | 7.88 µM | 8.8 µM | – |
| O=C1c2ccccc2C(=O)N1CCN(CCN1C(=O)c2ccccc2C1=O)Cn1cccn1 | > 100 µM | > 100 µM | > 100 µM | > 100 µM | – | > 100 µM | > 100 µM | > 100 µM | > 100 µM | > 100 µM | – | – | – | – | – | – | – | – | – | – |
| CC[P+](C)(C)c1ccccc1 | > 100 µM | > 100 µM | > 100 µM | > 100 µM | > 100 µM | > 100 µM | – | > 100 µM | > 100 µM | > 100 µM | – | – | – | – | – | – | – | – | – | – |
| Cc1ccc(NC(=O)C(=O)C(C#N)c2nc(-c3ccc(-c4ccccc4)cc3)cs2)c(C)c1 (stereo not given) | > 100 µM | – | > 100 µM | – | > 100 µM | > 100 µM | – | > 100 µM | > 100 µM | > 100 µM | – | – | – | – | – | – | – | – | – | – |
| COC(=O)C(C(=O)C(=O)Nc1nc(=S)[nH][nH]1)c1csc(-n2nc(-c3ccccc3)cc2-c2ccccc2)n1 (stereo not given) | > 100 µM | > 100 µM | > 100 µM | > 100 µM | > 100 µM | > 100 µM | > 100 µM | > 100 µM | > 100 µM | – | – | – | – | – | – | – | – | – | – | – |
| NNC(=O)CNC(=O)c1ccc(Cl)cc1Cl | > 100 µM | > 100 µM | > 100 µM | > 100 µM | > 100 µM | > 100 µM | > 100 µM | > 100 µM | > 100 µM | – | – | – | – | – | – | – | – | – | – | – |
| O=C1NC(=O)C(=C/C=C/c2ccccc2)C(=O)N1 | 28 µM | > 100 µM | 25.5 µM | 70 µM | – | 25.1 µM | 7.15 µM | 10.3 µM | 18.3 µM | 16.2 µM | 7.06 µM | 12 µM | 4.94 µM | 4.12 µM | 2.36 µM | 3.2 µM | 3.65 µM | 5.62 µM | 3.57 µM | – |
| O=C(c1ccccc1)[C@H]1Nc2ccc(Cl)cc2C2c3ccccc3CC21 (stereo not given in full) | > 100 µM | – | > 100 µM | > 100 µM | – | > 100 µM | > 100 µM | > 100 µM | > 100 µM | > 100 µM | – | – | – | – | – | – | – | – | – | – |
| Cc1ccc(-c2cc3c(SCC(=O)Nc4cc(C(F)(F)F)ccc4Cl)nccn3n2)cc1 | – | – | > 100 µM | > 100 µM | > 100 µM | > 100 µM | – | > 100 µM | > 100 µM | > 100 µM | – | 58.2 µM | > 100 µM | > 100 µM | – | 79.4 µM | > 100 µM | > 100 µM | – | > 100 µM |
| CCOC(=O)c1c(C)n2c(=O)cc(C)c3c(O)c(O)cc1c32 | 49.1 µM | 6.05 µM | > 100 µM | 33.3 µM | – | 15.2 µM | 16.7 µM | > 100 µM | > 100 µM | > 100 µM | 5.56 µM | 38.4 µM | 3.46 µM | 1.34 µM | 3.4 µM | 5.88 µM | 20.9 µM | 5.47 µM | 0.746 µM | – |
| O=C1c2nsnc2C(=O)c2c(F)c(F)c(F)c(F)c21 | 4.85 µM | 0.542 µM | 2.24 µM | 1.01 µM | – | 1.44 µM | – | 3.17 µM | 1.92 µM | 4.81 µM | 2.15 µM | 0.913 µM | 0.238 µM | 0.298 µM | – | 1.6 µM | 2.17 µM | 0.71 µM | 0.117 µM | – |
| CCCCCCCCOCC(O)COC(=O)CCCCCCC (stereo not given) | > 100 µM | 35.7 µM | > 100 µM | > 100 µM | > 100 µM | > 100 µM | – | > 100 µM | > 100 µM | – | – | – | – | – | – | – | – | – | – | – |
| C/C(=C\CCc1ccoc1)CC/C=C(\C)CCCN1CCOCC1 | 23.2 µM | 11 µM | 25.6 µM | – | – | 16.9 µM | 26.8 µM | 21.7 µM | 23.8 µM | 25.9 µM | 9.08 µM | 12.2 µM | – | 4.2 µM | 10.9 µM | 7.03 µM | 12.2 µM | 11 µM | 2.79 µM | – |
| COc1ccc2c(CN3CCC(C(=O)O)CC3)cc3cc4c(cc3c2c1)OCO4 | 4.34 µM | 6.5 µM | 11.4 µM | 11.3 µM | 3.45 µM | 9.73 µM | – | 25.4 µM | 25 µM | 3 µM | 1.77 µM | 2.71 µM | 2.66 µM | 3.05 µM | – | 3.67 µM | 1.48 µM | 3.23 µM | 1 µM | 1.58 µM |
| Oc1ccc(O)c(-c2cn3ccsc3n2)c1 | 48.9 µM | 4.23 µM | – | 26.1 µM | – | 5.42 µM | > 100 µM | > 100 µM | 47.9 µM | > 100 µM | 22.9 µM | – | 6.93 µM | 2.55 µM | 4.29 µM | 14.4 µM | 50.4 µM | 21.3 µM | 1.59 µM | – |
| O=C(c1ccccc1)N1C2CCC1C(C(F)(F)F)=C2C(F)(F)F | > 100 µM | > 100 µM | > 100 µM | > 100 µM | > 100 µM | > 100 µM | > 100 µM | > 100 µM | > 100 µM | – | – | – | – | – | – | – | – | – | – | – |
| CC(=O)c1ccc(OCC(O)CO)cc1 (stereo not given) | > 100 µM | > 100 µM | > 100 µM | > 100 µM | > 100 µM | > 100 µM | > 100 µM | > 100 µM | > 100 µM | – | – | – | – | – | – | – | – | – | – | – |
| NC(N)=N/N=C/c1c(-c2cc(Cl)sc2Cl)nc2sccn12 | 11.3 µM | 1.68 µM | 7.24 µM | 3.14 µM | – | 1.91 µM | > 50 µM | 3.9 µM | 2.78 µM | > 50 µM | 2.17 µM | 2.07 µM | 1.32 µM | 0.912 µM | 1.76 µM | 1.26 µM | 2.72 µM | 1.29 µM | 0.807 µM | – |
| O=C(O)C[C@H]1CCCCC12CCOC2=O (stereo not given in full) | > 100 µM | > 100 µM | > 100 µM | > 100 µM | – | > 100 µM | > 100 µM | > 100 µM | > 100 µM | > 100 µM | – | – | – | – | – | – | – | – | – | – |
